Data as given in patent US20250197864A1, “LNCRNA TRANSCRIPTS IN MELANOMAGENESIS” (The Regents of the University of California, priority 2021, published 2025).

System: gene expression in D04 melanoma cells
Assay: RNA-Seq differential expression analysis (DESeq2)
Format: cell-based, human
Description: Total RNA was isolated using the RNeasy mini Kit (QIAGEN) following the manufacturer's protocol. Quality check for extracted RNA was done using 2100 Bioanalyzer (Agilent Technologies, USA) or Tapestation System (Agilent Technologies, USA). […] For samples used for identification of MAPK-responsive lncRNAs, paired-end, 101-bp sequencing was performed by Centrillion Genomic Services (Centrillion Biosciences, USA) on an Illumina HiSeq 2000. For DE gene analysis of ASO-transfected D04 samples, paired-end, 2×150-bp sequencing was performed by Genewiz (USA) on a Illumina HiSeq.
Sequence reads were aligned to the human genome (hg19) using TopHat (Version 2.0.11).
Differential expression (DE) analysis was done using DESeq2. Differentially expressed genes were defined by more than 1.5-fold changes (log 2 >0.58 or <−0.58) in expression with FDR<0.05. GO term analysis was done using DAVID Functional Annotation Clustering analysis.
To examine the biomolecular changes upon TRASH-inhibition in melanoma, D04 cells were treated with TRASH-ASOs (SEQ ID NO:15) and Control-ASOs and RNA was extracted and used for RNA-Seq. […] These GO terms consisted of genes encoding growth factors, tyrosine kinases, G protein coupled receptor subunits, and collagen subunits. Scatter plot diagram showing differential gene expression after TRASH-ASO treatment compared to Control-ASO treatment. (cut-off for significance was adjusted p-value <0.05). Data was obtained from RNA-Seq of D04 melanoma cells, treatment period was three days. (FIG. 5c)

Sequence: GACTGGAGATAATTAA (gapmer, pattern not given here) [SEQ ID NO: 15, GapmeR ASO targeting AC004540.4 (TRASH), exon region of both isoforms; used for in vitro experiments]
- log2FoldChange (LINC00689 (ENSG00000231419)): 1.29
- log2FoldChange (LINC00707 (ENSG00000238266)): 1.936
- log2FoldChange (LINC00879 (ENSG00000239589)): −0.6051
- log2FoldChange (LINC00957 (ENSG00000235314)): 1.503
- log2FoldChange (LINC00973 (ENSG00000240476)): 1.339
- log2FoldChange (LINC01204 (ENSG00000229563)): 1.543
- log2FoldChange (LINC01444 (ENSG00000264301)): 1.479
- log2FoldChange (LINC01468 (ENSG00000231131)): 1.433
- log2FoldChange (LINC01505 (ENSG00000234323)): −0.6329
- log2FoldChange (LINC01583 (ENSG00000259518)): 1.348
- log2FoldChange (LINC01638 (ENSG00000233521)): 1.544
- log2FoldChange (LINC01770 (ENSG00000225285)): −0.5999
- log2FoldChange (LINC02009 (ENSG00000283646)): 2.6101
- log2FoldChange (LINC02109 (ENSG00000259786)): −0.684
- log2FoldChange (LINC02302 (ENSG00000258998)): 1.424
- log2FoldChange (LINC02506 (ENSG00000251129)): −0.687
- log2FoldChange (LINC02551 (ENSG00000254842)): 1.274
- log2FoldChange (LOXL2 (ENSG00000134013)): −0.5824
- log2FoldChange (LOXL3 (ENSG00000115318)): −0.6239
- log2FoldChange (LPAR1 (ENSG00000198121)): −0.683
- log2FoldChange (LRRC2 (ENSG00000163827)): 1.394
- log2FoldChange (LRRC17 (ENSG00000128606)): −0.6716
- log2FoldChange (LRRK1 (ENSG00000154237)): −0.6611
- log2FoldChange (MACROD2 (ENSG00000172264)): −0.705
- log2FoldChange (MAML2 (ENSG00000184384)): −0.6085
- log2FoldChange (MAP3K3 (ENSG00000198909)): −0.63
- log2FoldChange (MAP3K7CL (ENSG00000156265)): 1.53
- log2FoldChange (MAP7D2 (ENSG00000184368)): 1.513
- log2FoldChange (MATN1 (ENSG00000162510)): 1.294
- log2FoldChange (MCF2L (ENSG00000126217)): 3.367
- log2FoldChange (MECR (ENSG00000116353)): −0.6676
- log2FoldChange (MEGF9 (ENSG00000106780)): −0.634
- log2FoldChange (MEIS1 (ENSG00000143995)): −0.6955
- log2FoldChange (MLLT1 (ENSG00000130382)): −0.682
- log2FoldChange (MMP3 (ENSG00000149968)): 1.815
- log2FoldChange (MPP4 (ENSG00000082126)): 1.479
- log2FoldChange (MRGPRX4 (ENSG00000179817)): 1.367
- log2FoldChange (MSANTD2 (ENSG00000120458)): −0.6954
- log2FoldChange (MUC4 (ENSG00000145113)): 2.706
- log2FoldChange (MVB12B (ENSG00000196814)): −0.6767
- log2FoldChange (MYBPH (ENSG00000133055)): −0.6322
- log2FoldChange (MYCT1 (ENSG00000120279)): 3.863
- log2FoldChange (MYH16 (ENSG00000002079)): 1.514
- log2FoldChange (MYOCD (ENSG00000141052)): −0.6639
- log2FoldChange (NA (ENSG00000170647)): −0.6428
- log2FoldChange (NAP1L3 (ENSG00000186310)): 1.339
- log2FoldChange (NBEA (ENSG00000172915)): −0.6249
- log2FoldChange (NBEAP1 (ENSG00000258590)): 1.338
- log2FoldChange (NCALD (ENSG00000104490)): −0.6411
- log2FoldChange (NCAM1 (ENSG00000149294)): −0.6126
- log2FoldChange (NCKAP5L (ENSG00000167566)): −0.6233
- log2FoldChange (NES (ENSG00000132688)): −0.6119
- log2FoldChange (NLRC3 (ENSG00000167984)): 1.713
- log2FoldChange (NLRP1 (ENSG00000091592)): −0.7071
- log2FoldChange (NLRP3 (ENSG00000162711)): 2.515
- log2FoldChange (NLRP5 (ENSG00000171487)): 6.997
- log2FoldChange (NLRP10 (ENSG00000182261)): 1.584
- log2FoldChange (NOSTRIN (ENSG00000163072)): −0.6677
- log2FoldChange (NR2F1 (ENSG00000175745)): −0.6433
- log2FoldChange (NR2F1-AS1 (ENSG00000237187)): −0.5814
- log2FoldChange (OLFML2A (ENSG00000185585)): −0.6037
- log2FoldChange (ONECUT2 (ENSG00000119547)): 1.306
- log2FoldChange (OPRK1 (ENSG00000082556)): 1.22
- log2FoldChange (OVAAL (ENSG00000236719)): 1.572
- log2FoldChange (P2RX6 (ENSG00000099957)): −0.6686
- log2FoldChange (P2RX7 (ENSG00000089041)): −0.5889
- log2FoldChange (PADI1 (ENSG00000142623)): 2.566
- log2FoldChange (PADI3 (ENSG00000142619)): 1.708
- log2FoldChange (PAPPA (ENSG00000182752)): −0.6776
- log2FoldChange (PCDH12 (ENSG00000113555)): 1.386
- log2FoldChange (PCDHB15 (ENSG00000113248)): −0.6069
- log2FoldChange (PDE2A (ENSG00000186642)): 1.553
- log2FoldChange (PDE8A (ENSG00000073417)): −0.6263
- log2FoldChange (PEAR1 (ENSG00000187800)): 1.726
- log2FoldChange (PGM5P2 (ENSG00000277778)): 1.447
- log2FoldChange (PIGR (ENSG00000162896)): 1.274
- log2FoldChange (PIWIL2 (ENSG00000197181)): 1.787
- log2FoldChange (PKHD1L1 (ENSG00000205038)): 1.46
- log2FoldChange (PKIA (ENSG00000171033)): −0.6985
- log2FoldChange (PLA2G7 (ENSG00000146070)): 1.312
- log2FoldChange (PLAT (ENSG00000104368)): −0.6194
- log2FoldChange (PLCD4 (ENSG00000115556)): −0.6812
- log2FoldChange (PLCL1 (ENSG00000115896)): −0.6782
- log2FoldChange (PLCXD2 (ENSG00000240891)): 1.882
- log2FoldChange (PLEKHA2 (ENSG00000169499)): −0.6601
- log2FoldChange (PLIN4 (ENSG00000167676)): −0.6819
- log2FoldChange (POU2F3 (ENSG00000137709)): 1.244
